Key:
[1] = test system: vaccinia virus; format: cell-based
[2] = test system: wild-type vaccinia strain Western Reserve; format: cell-based
[3] = test system: vaccinia virus strain IHDJ; format: cell-based
[4] = test system: LV virus / LR virus in A549 cells; format: cell-based, vaccinia strain Western Reserve
[5] = test system: LREV virus (late red early Venus reporter vaccinia virus); format: cell-based
[6] = test system: cellular and viral protein synthesis
[7] = test system: cowpox Brighton red (CPX); format: cell-based
[8] = test system: EV, IV and LV reporter viruses; format: cell-based
[9] = test system: A549 and HeLa cells
[10] = test system: viral DNA replication (LV virus); format: cell-based
[11] = test system: EV, IV and LV reporter mRNA; format: cell-based, vaccinia strain Western Reserve
[12] = test system: TrpV reporter virus; format: cell-based
[13] = test system: LV virus late reporter expression; format: cell-based, vaccinia strain Western Reserve
[14] = test system: late Venus; LV virus (Venus under control of the late F17R promoter); format: cell-based, vaccinia strain Western Reserve
[15] = test system: monkeypox Zaire 1979 (MPDX); format: cell-based
[16] = test system: HIV/Lai; assay: microbe, parasite or virus in culture; format: cell-based; details: Human immunodeficiency virus 1, TZM-bl, read-out: IC50, inhibition of HIV

## CC(=O)C1=C2C=C(C)CCN2C(=O)NC1c1ccccc1 (centres unmarked) [Compound 3b, 4-acetyl-6-methyl-3-phenyl-2,3,7,8-tetrahydro-1H-pyrido[1,2-c]pyrimidin-1-one]
[1]
  antiviral activity compared with CMLDBU6128: demonstrated antiviral activity but were significantly less active than CMLDBU6 128

## Nc1ccn([C@@H]2O[C@H](CO)[C@@H](O)[C@@H]2O)c(=O)n1 [AraC]
[2]
  virus yield reduction, single-cycle: 3.5 log

## CC(=O)C1=C2C=CCCN2C(=O)N[C@H]1c1ccccc1 [CMLDBU6128, 4-acetyl-2,3,7,8-tetrahydro-3-phenylpyrido[1,2-f]pyrimidin-1-one]
[3]
  viral yield reduction: 2.4 log
[2]
  virus yield reduction, single-cycle: 3.6 log
[4]
  viral spread after low MOI infection: limits viral spread after low MOI infection
[5]
  antiviral activity of screening hit: strongly antiviral
[6]
  cellular protein synthesis in mock-infected cells: unaffected
  viral protein synthesis: globally reduced
[7]
  viral yield reduction: 4.0 log
[8]
  EV (early) reporter expression: unaffected
  IV (intermediate) reporter expression: only reached half-maximal levels
  reduction of maximum LV (late) reporter fluorescence: approximately 85%
[9]
  cytotoxicity of screening hit: not cytotoxic
[9]; 24 h
  cell cytotoxicity: little to no cell cytotoxicity
[10]
  Venus DNA copies/c.e.: 529 copies/c.e.
  viral DNA replication: occurred normally
[11]
  EV reporter mRNA accumulation: unaffected
  reduction of peak IV reporter mRNA: 41%
  reduction of peak LV reporter mRNA: 73%
[12]
  early Venus expression (TrpV): no detectable effect
  mCherry and late TagBFP expression (TrpV): reduced mCherry and late TagBFP expression uniformly
[13]
  reporter expression after drug removal: drug removal did not result in a restart of reporter expression
  time to flattening of late reporter expression after addition to an unimpeded 10 h infection: ≤ 2 h
[14]; read-out: IC50 for LV reporter expression
  IC50: ~5.3 µM
[14]; read-out: IC90 for LV reporter expression
  IC90: ~10.4 µM
[15]
  viral yield reduction: 2.5 log
[16]
  IC50: ~20 µM

## O=C(NN1C(=O)[C@@H]2[C@@H]3C=C[C@@H]([C@H]4C[C@@H]34)[C@@H]2C1=O)c1ccc(C(F)(F)F)cc1 [ST-246]
[2]
  virus yield reduction, single-cycle: 0.3 log

## COC(=O)C1=C2C=C([Si](C)(C)C)CCN2C(=O)NC1c1ccccc1 (centres unmarked) [Compound 4c, methyl 1-oxo-3-phenyl-6-(trimethylsilyl)-2,3,7,8-tetrahydro-1Hpyrido[1,2-c]pyrimidine-4-carboxylate]
other
  melting point: 169 to 172 °C

Reference: patent US9567331B2 (priority 2011, dated 2017)
